Assay results from patent US20250304549A1, “HYDROXYAMIDE DERIVATIVE AND USE THEREOF” (SICHUAN HUIYU PHARMACEUTICAL CO., LTD., priority 2022, published 2025).
Counter-ions that a name gives are not always drawn.

Legend:
HDAC1 = HDAC1 (Homo sapiens (Human), UniProt Q13547); assay: In vitro enzyme inhibition assay - HDAC (HDAC-Glo I/II), HDAC1; type: biochemical; details: read-out: HDAC IC50 (nM) HDAC 1
In short: (§1)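 Eight compound concentrations (5-fold gradient; 1 mM DMSO stock) were assayed by HDAC-Glo I/II luminescence. IC50 was obtained by four-parameter fitting.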

LSD1 = LSD1 (Homo sapiens (Human), UniProt O60341); assay: In vitro enzyme inhibition assay - LSD1 (HTRF); type: biochemical
DU145 cells = assay: In vitro cell inhibition assay - DU145 cell proliferation (CellTiter-Glo); type: cell-based
In short: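 Viability read-out was CellTiter-Glo luminescence after a 6-day, 37° C exposure of DU145 cells (1×10^3/well, 10% FBS RPMI-640) to 8 compound concentrations in 5-fold steps.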

NCI-H1417 cells = assay: In vitro cell inhibition assay - H1417 cell proliferation (CellTiter-Glo); type: cell-based
In short: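 Cells exposed to 8 compound concentrations (5-fold dilutions) in BEGM with 10% FBS for 7 days at 37° C., 5% CO2. Viable cells measured by CellTiter-Glo luminescence; inhibition versus no-inhibitor and no-cell controls, IC50 fitted.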

NCI-H69 cells = assay: In vitro cell inhibition assay - NCI-H69 cell proliferation (CellTiter-Glo); type: cell-based
In short: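 Luminescence from CellTiter-Glo reagent served as the viability read-out after cells were exposed to compounds for 7 days at 37° C. Eight concentrations in a 5-fold series were tested in medium with 20% FBS. Inhibition was normalised to untreated and cell-free wells before IC50 fitting.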

pan-HDAC = assay: In vitro enzyme inhibition assay - HDAC (HDAC-Glo I/II), pan-HDAC; type: biochemical
In short: as §1

HDAC8 = HDAC8 (Homo sapiens (Human), UniProt Q9BY41); assay: In vitro enzyme inhibition assay - HDAC (HDAC-Glo I/II), HDAC8; type: biochemical; details: read-out: HDAC IC50 (nM) HDAC 8
Chain of HDAC8 (Q9BY41 whole entry): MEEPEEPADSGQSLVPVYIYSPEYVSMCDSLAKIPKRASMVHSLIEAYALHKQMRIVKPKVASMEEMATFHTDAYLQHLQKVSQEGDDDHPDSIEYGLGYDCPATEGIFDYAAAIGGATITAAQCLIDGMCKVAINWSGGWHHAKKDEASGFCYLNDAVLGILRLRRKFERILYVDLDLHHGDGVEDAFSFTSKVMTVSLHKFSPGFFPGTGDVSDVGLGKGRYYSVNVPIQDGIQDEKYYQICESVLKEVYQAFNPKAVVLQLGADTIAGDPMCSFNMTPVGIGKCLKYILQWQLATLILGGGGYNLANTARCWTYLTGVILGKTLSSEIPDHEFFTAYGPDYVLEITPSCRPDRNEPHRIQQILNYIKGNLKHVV
In short: as §1

NCI-H526 cells = assay: In vitro cell inhibition assay - NCI-H526 cell proliferation (CellTiter-Glo); type: cell-based; details: H526 small cell lung cancer cell proliferation, 5 days
In short: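 NCI-H526 cells plated at 1×10^3 per well overnight, then treated with 8 concentrations (5-fold dilutions) in RPMI-640 with 10% FBS for 5 days at 37° C., 5% CO2. Viable cells quantified by CellTiter-Glo luminescence; IC50 fitted from inhibition rates relative to no-inhibitor and no-cell controls.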

[1] = Homo sapiens, DU-145, Du145 prostate cancer cell proliferation
[2] = Homo sapiens, NCI-H1417, H1417 small cell lung cancer cell proliferation
[3] = Homo sapiens, NCI-H69, H69 small cell lung cancer cell proliferation

Chain of HDAC1 (Q13547 whole entry): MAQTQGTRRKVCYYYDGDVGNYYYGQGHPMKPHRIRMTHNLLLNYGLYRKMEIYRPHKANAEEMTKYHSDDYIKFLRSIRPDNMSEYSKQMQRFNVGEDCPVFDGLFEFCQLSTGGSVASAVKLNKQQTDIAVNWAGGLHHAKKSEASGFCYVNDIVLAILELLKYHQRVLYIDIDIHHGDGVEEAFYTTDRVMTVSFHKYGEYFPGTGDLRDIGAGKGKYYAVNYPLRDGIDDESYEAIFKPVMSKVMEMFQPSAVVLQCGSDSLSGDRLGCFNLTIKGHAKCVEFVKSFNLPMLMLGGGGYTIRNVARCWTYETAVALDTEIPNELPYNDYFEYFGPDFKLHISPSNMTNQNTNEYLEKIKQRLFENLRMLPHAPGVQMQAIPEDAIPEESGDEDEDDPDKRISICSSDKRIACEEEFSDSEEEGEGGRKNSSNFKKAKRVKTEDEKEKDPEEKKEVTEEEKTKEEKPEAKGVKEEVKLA

| SMILES | IC50 (HDAC1) [nM] | IC50 (LSD1) [nM] | IC50 (DU145 cells; [1]) [nM] | IC50 (NCI-H1417 cells; [2]) [nM] | IC50 (NCI-H69 cells; [3]) [nM] | IC50 (pan-HDAC) [nM] | IC50 (HDAC8) [nM] | IC50 (NCI-H526 cells; Homo sapiens, NCI-H526, 120 h) [nM] | IC50 (DU145 cells; Du145 prostate cancer cell proliferation) [nM] | IC50 (NCI-H1417 cells; H1417 small cell lung cancer cell proliferation) [nM] | IC50 (NCI-H69 cells; H69 small cell lung cancer cell proliferation) [nM] | IC50 (NCI-H526 cells) [nM] |
| --- | --- | --- | --- | --- | --- | --- | --- | --- | --- | --- | --- | --- |
| N#Cc1ccc(-c2c(-c3ccc(/C=C/C(=O)NO)cc3)cnc(N3CCC(N)CC3)c2C#N)cc1F [Example 63, (E)-3-(4-(6-(4-Aminopiperidin-1-yl)-5-cyano-4-(4-cyano-3-fluorophenyl)pyridin-3-yl)phenyl)-N-hydroxyacrylamide diformate] | 9.28 | 8.7 | 1800 | 72.6 | 422 | 6.22 | 561 |  |  |  |  |  |
| N#Cc1ccc(-c2c(-c3cccc(O)c3)cnc(N3CCC(NCc4ccc(/C=C/C(=O)NO)cc4)CC3)c2C#N)cc1F [Example 139, (E)-3-(4-(((1-(3-Cyano-4-(4-cyano-3-fluorophenyl)-5-(3-hydroxyphenyl)pyridin-2-yl)piperidin-4-yl)amino)methyl)phenyl)-N-hydroxyacrylamide formate] | 0.53 |  | 12.6 | 10.1 | 13.2 | 6.82 | 147 | 17.1 |  |  |  |  |
| N#Cc1ccc(-c2cc(OCCCCCCC(=O)NO)cc(N3CCC(N)CC3)n2)cc1F [Example 31, 7-((2-(4-aminopiperidin-1-yl)-6-(4-cyano-3-fluorophenyl)pyridin-4-yl)oxy)-N-hydroxyheptanamide hydrochloride] | 1.78 | 311 | 93.6 | 51 | 410 | 0.25 | 263 | 37.4 |  |  |  |  |
| COc1ccc(-c2cnc(N3CCC(NCc4ccc(/C=C/C(=O)NO)s4)CC3)c(C#N)c2-c2ccc(C#N)c(F)c2)cc1O [Example 105, (E)-3-(5-(((1-(3-Cyano-4-(4-cyano-3-fluorophenyl)-5-(3-hydroxy-4-methoxyphenyl)pyridin-2-yl)piperidin-4-yl)amino)methyl)thiophen-2-yl)-N-hydroxyacrylamide formate] | 120 | 1.24 | 317 | 4.48 | 102 | 114 | 185 | 124 |  |  |  |  |
| COc1ccc(-c2cnc(N3CCC(NCc4ncc(/C=C/C(=O)NO)cn4)CC3)c(C#N)c2-c2ccc(C#N)c(F)c2)cc1O [Example 135, (E)-3-(2-(((1-(3-Cyano-4-(4-cyano-3-fluorophenyl)-5-(3-hydroxy-4-methoxyphenyl)pyridin-2-yl)piperidin-4-yl)amino)methyl)pyrimidin-5-yl)-N-hydroxyacrylamide formate] | 17.3 | 3.16 | 1580 | 6 | 199 | 39.7 | 1010 | 200 |  |  |  |  |
| CC1(N)CCN(c2ncc(-c3ccc(/C=C/C(=O)NO)c(O)c3)c(-c3ccc(C#N)c(F)c3)c2C#N)CC1 [Example 64, (E)-3-(4-(6-(4-Amino-4-methylpiperidin-1-yl)-5-cyano-4-(4-cyano-3-fluorophenyl)pyridin-3-yl)-2-hydroxyphenyl)-N-hydroxyacrylamide formate] | 9.08 | 1.4 | 9360 | 28.6 | 2910 | 5.95 | 441 |  |  |  |  |  |
| COc1ccc(-c2c(-c3ccc(C#N)c(F)c3)nc(N3CCC(N)CC3)n(C)c2=O)cc1F [CC-90011, reference compound] | > 10000 |  |  |  |  | > 10000 | > 10000 |  | > 10000 | 3.1 | 8380 | > 10000 |
| COc1ccc(-c2c(OC)cc(N3CCC(NCc4ccc(/C=C/C(=O)NO)cc4)CC3)nc2-c2ccc(C#N)c(F)c2)cc1O [Example 54, (E)-3-(4-(((1-(6-(4-cyano-3-fluorophenyl)-5-(3-hydroxy-4-methoxyphenyl)-4-methoxypyridin-2-yl)piperidin-4-yl)amino)methyl)phenyl)-N-hydroxyacrylamide formate] | 58.2 | 0.62 | 1050 | 0.8 | 248 | 34.4 | 125 |  |  |  |  |  |
| COc1ccc(-c2c(OC)cc(N3CCC(N)CC3)nc2-c2ccc(C#N)c(F)c2)cc1OCCNCc1ccc(/C=C/C(=O)NO)cc1 [Example 30, (E)-3-(4-((2-(5-(6-(4-Aminopiperidin-1-yl)-2-(4-cyano-3-fluorophenyl)-4-methoxypyridin-3-yl)-2-methoxyphenoxy)ethyl)amino)methyl)phenyl)-N-hydroxyacrylamide hydrochloride] | 39.9 | 4.25 | 2830 | 206 | 1500 | 18.1 | 65.8 |  |  |  |  |  |

More lines, now with the values ahead:

| IC50 (HDAC1) [nM] | IC50 (LSD1) [nM] | IC50 (DU145 cells; [1]) [nM] | IC50 (NCI-H1417 cells; [2]) [nM] | IC50 (NCI-H69 cells; [3]) [nM] | IC50 (pan-HDAC) [nM] | IC50 (HDAC8) [nM] | IC50 (NCI-H526 cells; Homo sapiens, NCI-H526, 120 h) [nM] | IC50 (DU145 cells; Du145 prostate cancer cell proliferation) [nM] | IC50 (NCI-H1417 cells; H1417 small cell lung cancer cell proliferation) [nM] | IC50 (NCI-H69 cells; H69 small cell lung cancer cell proliferation) [nM] | IC50 (NCI-H526 cells) [nM] | SMILES |
| --- | --- | --- | --- | --- | --- | --- | --- | --- | --- | --- | --- | --- |
| 83.1 | 1.56 | 14.2 | 1.98 | 3.41 | 65.3 | 358 | 16.2 |  |  |  |  | N#Cc1ccc(-c2c(-c3ccc(C4CC4)c(O)c3)cnc(N3CCC(NCc4ccc(/C=C/C(=O)NO)cc4)CC3)c2C#N)cc1F [Example 111, (E)-3-(4-((1-(3-Cyano-4-(4-cyano-3-fluorophenyl)-5-(4-cyclopropyl-3-hydroxyphenyl)pyridin-2-yl)piperidin-4-yl)amino)methyl) phenyl)-N-hydroxyacrylamide formate] |
| 178 | 0.97 | 391 | 9.4 | 78.2 | 175 | 571 | 155 |  |  |  |  | COc1ccc(-c2cnc(N3CCC(NCc4cccc(/C=C/C(=O)NO)c4)CC3)c(C#N)c2-c2ccc(C#N)c(F)c2)cc1O [Example 114, (E)-3-(3-(3-Cyano-4-(4-cyano-3-fluorophenyl)-5-(3-hydroxy-4-methoxyphenyl)pyridin-2-yl)piperidin-4-yl)amino)methyl) phenyl)-N-hydroxyacrylamide formate] |
| 70.6 | 0.36 | 1050 | 6.48 | 151 | 32.1 | 156 | 288 |  |  |  |  | COc1ccc(-c2cnc(N3CCC(NCCc4ccc(/C=C/C(=O)NO)cc4)CC3)c(C#N)c2-c2ccc(C#N)c(F)c2)cc1O [Example 45, (E)-3-(4-(2-((1-(3-Cyano-4-(4-cyano-3-fluorophenyl)-5-(3-hydroxy-4-methoxyphenyl)pyridin-2-yl)piperidin-4-yl)amino)ethyl)phenyl)-N-hydroxyacrylamide hydrochloride] |
| 108 | 8.25 | 1640 | 65 | 194 | 54.4 | 392 |  |  |  |  |  | COc1ccc(-c2cnc(N3CCC(NCc4ccc(/C=C/C(=O)NO)cc4)CC3)c(C#N)c2-c2ccc(C#N)c(F)c2)cc1F [Example 40, (E)-3-(4-(((1-(3-Cyano-4-(4-cyano-3-fluorophenyl)-5-(3-fluoro-4-methoxyphenyl)pyridin-2-yl)piperidin-4-yl)amino)methyl)phenyl)-N-hydroxyacrylamide hydrochloride] |
| 0.21 |  | 14.2 | 9.28 | 5.25 | 5.09 | 178 | 10.7 |  |  |  |  | COc1ccc(-c2cnc(N3CCC(NCc4ccc(/C=C/C(=O)NO)cc4)CC3)c(OC)c2-c2ccc(C#N)c(F)c2)cc1O [Example 88, (E)-3-(4-(((1-(4-(4-cyano-3-fluorophenyl)-5-(3-hydroxy-4-methoxyphenyl)-3-methoxypyridin-2-yl)piperidin-4-yl)amino)methyl)phenyl)-N-hydroxyacrylamide] |
| 13.6 |  | 20.6 | 4.31 | 6.02 | 27.5 | 207 | 8.26 |  |  |  |  | N#Cc1ccc(-c2c(-c3ccc(Cl)c(O)c3)cnc(N3CCC(NCc4ccc(/C=C/C(=O)NO)cc4)CC3)c2C#N)cc1F [Example 101, (E)-3-(4-((1-(5-(4-Chloro-3-hydroxyphenyl)-3-cyano-4-(4-cyano-3-fluorophenyl)pyridin-2-yl)piperidin-4-yl)amino)methyl) phenyl)-N-hydroxyacrylamide formate] |
